Tests used:
[1] = Half life evaluated in plasma in vitro at 20 degree Centigrade; assay type: ADME, cell-free
CaNT [2] = test: Cytometric distribution of cell nuclei from CaNT tumors treated in mice with breathing air; assay type: functional, cell-based; conditions: Mus musculus
CaNT [3] = test: Cytometric distribution of cell nuclei from CaNT tumors treated in mice with breathing carbogen; assay type: functional, cell-based; conditions: Mus musculus
CaNT [4] = test: Cytometric distribution of single cells from CaNT tumors treated in mice; assay type: functional, cell-based; conditions: Mus musculus
CaNT [5] = test: Cytometric distribution of cell nuclei from CaNT tumors treated in mice; assay type: functional, cell-based; conditions: Mus musculus
CaNT [6] = test: Cytometric distribution of single cells from CaNT tumors treated in mice with breathing air; assay type: functional, cell-based; conditions: Mus musculus
CaNT [7] = test: Cytometric distribution of single cells from CaNT tumors treated in mice with breathing carbogen; assay type: functional, cell-based; conditions: Mus musculus

SMILES	half-life [1] [h]	Distribution (CaNT [2]) [%]	Distribution (CaNT [3]) [%]	Distribution (CaNT [4]) [%]	Distribution (CaNT [5]) [%]	Distribution (CaNT [6]) [%]	Distribution (CaNT [7]) [%]
O=C(CCCC[C@@H]1SC[C@@H]2NC(=O)N[C@@H]21)NCCNC(=O)Cn1ccnc1[N+](=O)[O-]	2						
O=C1N[C@H]2[C@H](CS[C@H]2CCCCCn2ccnc2[N+](=O)[O-])N1		11.7	0.69	1.2	0.85	16.5	3.4
